Several values for one entry are separate records, joined by “and”; a condition that tells them apart may be missing. Equal values may be shown once. Toxic doses and inconclusive results are not listed. Square brackets hold non-standard residues; d marks the D form. Peptide text beside a SMILES is read from it. * marks the point of attachment. ξ: configuration not given here. ξF = NC(Cc1ccccc1)C(=O)O; Cbz = O=C(OCc1ccccc1)*; Sar = CNCC(=O)O

The test deals with P388 leukemia ip, CD2F1 mice, survival T/C. Nature of the test: NCI In Vivo Anticancer Drug Screen. Data for tumor model P388 Leukemia (intraperitoneal) in CD2F1 (CDF1) mice. Conditions: endpoint: median survival time, higher = longer survival. A digest of the protocol:
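Mice carrying the transplanted tumor received test compound or vehicle. Survival was recorded in each group, and the value is the treated-group measurement divided by that of the vehicle-treated control group.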

Where [1] appears, read: dose: 12.5 mg/kg/injection, schedule: Q01DX005 (ip), vehicle: saline with Tween-80.
The mark [2] stands for this setting: dose: 50.0 mg/kg/injection, schedule: Q01DX005 (ip), vehicle: saline with Tween-80.
The mark [3] stands for this setting: dose: 100.0 mg/kg/injection, schedule: Q01DX005 (ip), vehicle: saline with Tween-80.
The mark [4] stands for this setting: dose: 200.0 mg/kg/injection, schedule: Q01DX005 (ip), vehicle: saline with Tween-80.
Setting [5] is: dose: 200.0 mg/kg/injection, schedule: Q04DX003 (ip), vehicle: saline with Tween-80.
The mark [6] stands for this setting: dose: 50.0 mg/kg/injection, schedule: Q01DX009 (ip), vehicle: saline.
The mark [7] stands for this setting: dose: 100.0 mg/kg/injection, schedule: Q01DX009 (ip), vehicle: saline.
The mark [8] stands for this setting: dose: 100.0 mg/kg/injection, schedule: Q01DX009 (ip), vehicle: saline with Tween-80.
The mark [9] stands for this setting: dose: 50.0 mg/kg/injection, schedule: Q01DX005 (ip), vehicle: Klucel (hydroxypropylcellulose) (HPC).
[10] abbreviates: dose: 100.0 mg/kg/injection, schedule: Q01DX005 (ip), vehicle: Klucel (hydroxypropylcellulose) (HPC).
The mark [11] stands for this setting: dose: 200.0 mg/kg/injection, schedule: Q01DX005 (ip), vehicle: Klucel (hydroxypropylcellulose) (HPC).
The mark [12] stands for this setting: dose: 200.0 mg/kg/injection, schedule: Q01DX009 (ip), vehicle: saline with Tween-80.

With `C=C1CC[C@@H]2C(C)(C)CCC[C@@]2(C)[C@@H]1Cc1cc(O)ccc1O`, the T/C is, setting by setting: (dose: 10.0 mg/kg/injection, schedule: Q01DX009 (ip), vehicle: Klucel (hydroxypropylcellulose) (HPC)) 104 % of control; (dose: 20.0 mg/kg/injection, schedule: Q01DX009 (ip), vehicle: Klucel (hydroxypropylcellulose) (HPC)) 110 % of control; (dose: 40.0 mg/kg/injection, schedule: Q01DX009 (ip), vehicle: Klucel (hydroxypropylcellulose) (HPC)) 116 % of control.

As for `C/C(=N\NC(=S)N1CCC(C)CC1)c1nccs1`, the T/C was 106 % of control under setting [1]; 116 % of control (dose: 25.0 mg/kg/injection, schedule: Q01DX005 (ip), vehicle: saline with Tween-80); 118 % of control under setting [2].

With `COC(=O)[C@@H]1CCC(/C(C#N)=C2/CC[C@@H](C(=O)OC)N2)=N1`, the T/C (dose: 60.0 mg/kg/injection, schedule: Q01DX005 (ip), vehicle: saline with Tween-80) was 96 % of control; the T/C (dose: 120.0 mg/kg/injection, schedule: Q01DX005 (ip), vehicle: saline with Tween-80) was 95 % of control; the T/C (dose: 240.0 mg/kg/injection, schedule: Q01DX005 (ip), vehicle: saline with Tween-80) is 94 % of control.

Regarding `CCOC(=O)N1CCc2cc3c(cc2C1Cc1ccc(OC)c(OC)c1COC(C)=O)OCO3` (configuration not stated), the T/C is 100 % of control under setting [2], 100 % of control under setting [3] and 89 % of control under setting [4].

In the case of `NCc1c(Cl)c(Cl)c(Cl)c(CN)c1Cl`, the T/C is, setting by setting: (dose: 50.0 mg/kg/injection, schedule: Q04DX003 (ip), vehicle: saline with Tween-80) 100 % of control; (dose: 100.0 mg/kg/injection, schedule: Q04DX003 (ip), vehicle: saline with Tween-80) 100 % of control; under setting [5], 105 % of control.

As to `C[N+](C)(C)CC[N+](C)(C)Cc1cccc2ccccc12`, the T/C by setting is: under setting [6], 106 % of control; under setting [7], 107 % of control.

For the compound `CC1CN1P(=S)(N1CCCC1)N1CC1C` (configuration not stated), the T/C reads like this: (dose: 64.0 mg/kg/injection, schedule: Q04DX003 (ip), vehicle: saline with Tween-80) 116 % of control; (dose: 66.0 mg/kg/injection, schedule: Q01DX009 (ip), vehicle: saline with Tween-80) 150 % of control; under setting [8], 150 % of control; (dose: 150.0 mg/kg/injection, schedule: Q01DX009 (ip), vehicle: saline with Tween-80) 86 % of control; under setting [5], 159 % of control; (dose: 256.0 mg/kg/injection, schedule: Q04DX003 (ip), vehicle: saline with Tween-80) 100 % of control.

For `O=C(c1ccc(F)cc1)c1no[n+]([O-])c1C(=O)c1ccc(F)cc1`, the T/C was 122 % of control (dose: 37.5 mg/kg/injection, schedule: Q01DX009 (ip), vehicle: saline with Tween-80) and 118 % of control (dose: 75.0 mg/kg/injection, schedule: Q01DX009 (ip), vehicle: saline with Tween-80).

`CCCCS(=O)(=O)CSC#N`: the T/C was 102 % of control (dose: 3.12 mg/kg/injection, schedule: Q01DX005 (ip), vehicle: saline with Tween-80); 105 % of control (dose: 6.25 mg/kg/injection, schedule: Q01DX005 (ip), vehicle: saline with Tween-80); 117 % of control under setting [1].

On to `CCOCc1cn[nH]n1`, for which the T/C by setting is: (dose: 60.0 mg/kg/injection, schedule: Q01DX005 (ip), vehicle: saline) 100 % of control; (dose: 120.0 mg/kg/injection, schedule: Q01DX005 (ip), vehicle: saline) 100 % of control; (dose: 240.0 mg/kg/injection, schedule: Q01DX005 (ip), vehicle: saline) 104 % of control.

Regarding `CSC(=O)NC(=Nc1ccccc1)NC(=O)c1ccccc1`, the T/C runs as follows: (dose: 12.5 mg/kg/injection, schedule: Q01DX005 (ip), vehicle: Klucel (hydroxypropylcellulose) (HPC)) 90 % of control; (dose: 25.0 mg/kg/injection, schedule: Q01DX005 (ip), vehicle: Klucel (hydroxypropylcellulose) (HPC)) 93 % of control; under setting [9], 91 % of control; under setting [10], 88 % of control; under setting [11], 89 % of control and 91 % of control.

With `CCCCNC(=O)SCCC(=O)OC`, the T/C is, setting by setting: under setting [9], 100 % of control; under setting [10], 99 % of control; under setting [11], 105 % of control.

For `Cc1ccc(-n2c(=O)c3[nH]c4ccccc4sc=3c2=O)cc1`, the T/C by setting is: under setting [2], 102 % of control; under setting [3], 95 % of control; under setting [4], 91 % of control.

As to `Cc1ncc([N+](=O)[O-])n1CCn1nnc2c1CCCC2`, the T/C reads like this: (dose: 25.0 mg/kg/injection, schedule: Q04DX003 (ip), vehicle: saline) 100 % of control and 109 % of control; (dose: 50.0 mg/kg/injection, schedule: Q04DX003 (ip), vehicle: saline) 100 % of control and 109 % of control; (dose: 100.0 mg/kg/injection, schedule: Q04DX003 (ip), vehicle: saline) 115 % of control and 96 % of control; (dose: 200.0 mg/kg/injection, schedule: Q04DX003 (ip), vehicle: saline) 99 % of control and 115 % of control.

As to `C=C1C(=O)O[C@@H]2C3=C(C)C(=O)C=C[C@]3(C)CC[C@@H]12`, the T/C (dose: 100.0 mg/kg/injection, schedule: Q04DX002 (ip), vehicle: saline with Tween-80) was 109 % of control.

For `CC(O)C(O)C(O)C(C=O)OC1OC(C)C(O)C(O)C1O` (configuration not stated), the T/C runs as follows: (dose: 2.5 mg/kg/injection, schedule: Q01DX005 (ip), vehicle: saline + alcohol) 99 % of control; (dose: 5.0 mg/kg/injection, schedule: Q01DX005 (ip), vehicle: saline + alcohol) 96 % of control; (dose: 10.0 mg/kg/injection, schedule: Q01DX005 (ip), vehicle: saline + alcohol) 110 % of control; (dose: 20.0 mg/kg/injection, schedule: Q01DX005 (ip), vehicle: saline + alcohol) 91 % of control.

Take `c1ccc(C2SCCN2c2ccccc2)cc1` (configuration not stated): the T/C under setting [6] is 91 % of control; the T/C under setting [7] is 90 % of control; the T/C (dose: 200.0 mg/kg/injection, schedule: Q01DX009 (ip), vehicle: saline) is 89 % of control.

Regarding `C=C(C)C1CC=C(C)C(SCCN(CC)CC)C1` (configuration not stated), the T/C reads like this: under setting [9], 104 % of control; under setting [10], 109 % of control; under setting [11], 118 % of control.

As to `COc1ccc(CN2CCCN(/N=C/c3c4c(O)c5c(O)c(C)c6c(c5c3O)C(=O)C(C)(O/C=C/C(OC)C(C)C(OC(C)=O)C(C)C(O)C(C)C(O)C(C)/C=C/C=C(C)C(=O)N4)O6)CC2)cc1` (configuration not stated), the T/C by setting is: (dose: 12.5 mg/kg/injection, schedule: Q01DX009 (ip), vehicle: saline with Tween-80) 109 % of control; (dose: 25.0 mg/kg/injection, schedule: Q01DX009 (ip), vehicle: saline with Tween-80) 117 % of control; (dose: 50.0 mg/kg/injection, schedule: Q01DX009 (ip), vehicle: saline with Tween-80) 103 % of control and 97 % of control; under setting [8], 100 % of control; under setting [12], 97 % of control.

Regarding `CN(CC(=O)NC(Cc1ccccc1)C(=O)O)C(=O)OCc1ccccc1` (configuration not stated) (Cbz-[Sar]-[ξF]-OH), the T/C is 105 % of control under setting [2], 102 % of control under setting [3] and 100 % of control under setting [4].

Consider `COc1ccc(/C=N/Nc2nnc3c4cccnc4c4ccccc4c3n2)cc1OC`, for which the T/C is, setting by setting: (dose: 3.12 mg/kg/injection, schedule: Q01DX001 (ip), vehicle: saline with Tween-80) 102 % of control and 87 % of control; (dose: 6.25 mg/kg/injection, schedule: Q01DX001 (ip), vehicle: saline with Tween-80) 100 % of control and 87 % of control; (dose: 50.0 mg/kg/injection, schedule: Q01DX001 (ip), vehicle: saline with Tween-80) 104 % of control and 112 % of control; (dose: 100.0 mg/kg/injection, schedule: Q01DX001 (ip), vehicle: saline with Tween-80) 100 % of control and 111 % of control; (dose: 200.0 mg/kg/injection, schedule: Q01DX001 (ip), vehicle: saline with Tween-80) 106 % of control and 114 % of control; (dose: 400.0 mg/kg/injection, schedule: Q01DX001 (ip), vehicle: saline with Tween-80) 107 % of control.

Consider `CC1=NNC(=O)C1`, for which the T/C by setting is: (dose: 50.0 mg/kg/injection, schedule: Q01DX009 (ip), vehicle: Klucel (hydroxypropylcellulose) (HPC)) 86 % of control; (dose: 100.0 mg/kg/injection, schedule: Q01DX009 (ip), vehicle: Klucel (hydroxypropylcellulose) (HPC)) 102 % of control; (dose: 200.0 mg/kg/injection, schedule: Q01DX009 (ip), vehicle: Klucel (hydroxypropylcellulose) (HPC)) 94 % of control; (dose: 400.0 mg/kg/injection, schedule: Q01DX009 (ip), vehicle: Klucel (hydroxypropylcellulose) (HPC)) 106 % of control.

As to `C=CCc1ccccc1C`, the T/C is 109 % of control under setting [8] and 101 % of control under setting [12].

Values taken from PubChem BioAssay AID330 (DTP/NCI, 2004).
